Measured values from ChEMBL document CHEMBL4428091, “Design and optimization of (3-aryl-1H-indazol-6-yl)spiro[cyclopropane-1,3'-indolin]-2'-ones as potent PLK4 inhibitors with oral antitumor efficacy” (Bioorg Med Chem Lett, 2016).
pIC50: −log10 of the molar value.

How the values were obtained:
CYP2C9 = CYP2C9 (Homo sapiens, UniProt P11712); test: Inhibition of CYP2C9 (unknown origin) at 1 uM; assay type: ADME
[1] = Half life in mouse microsomes; assay type: ADME, Microsome
[2] = AUC in rat at 1 mg/kg, iv; assay type: ADME, organism-based; details: in vivo
[3] = Lipophilicity, log D of the compound at pH 7.4; assay type: physicochemical; details: buffer
[4] = Half life in rat at 1 mg/kg, iv; assay type: ADME, organism-based; details: in vivo
[5] = Oral bioavailability in rat at 5 mg/kg; assay type: ADME, organism-based; details: in vivo
[6] = Clearance in rat at 1 mg/kg, iv; assay type: ADME, organism-based; details: in vivo
[7] = Half life in human microsomes; assay type: ADME, Microsome
[8] = Cmax in mouse at 25 mg/kg, po; assay type: ADME, organism-based; set-up: dose 25 mg/kg, route oral; details: in vivo
[9] = AUC in rat at 5 mg/kg, po; assay type: ADME, organism-based; details: in vivo
CYP3A4 = CYP3A4 (Homo sapiens, UniProt P08684); test: Inhibition of CYP3A4 (unknown origin) at 1 uM; assay type: ADME
Sequence of CYP3A4 (P08684 whole entry): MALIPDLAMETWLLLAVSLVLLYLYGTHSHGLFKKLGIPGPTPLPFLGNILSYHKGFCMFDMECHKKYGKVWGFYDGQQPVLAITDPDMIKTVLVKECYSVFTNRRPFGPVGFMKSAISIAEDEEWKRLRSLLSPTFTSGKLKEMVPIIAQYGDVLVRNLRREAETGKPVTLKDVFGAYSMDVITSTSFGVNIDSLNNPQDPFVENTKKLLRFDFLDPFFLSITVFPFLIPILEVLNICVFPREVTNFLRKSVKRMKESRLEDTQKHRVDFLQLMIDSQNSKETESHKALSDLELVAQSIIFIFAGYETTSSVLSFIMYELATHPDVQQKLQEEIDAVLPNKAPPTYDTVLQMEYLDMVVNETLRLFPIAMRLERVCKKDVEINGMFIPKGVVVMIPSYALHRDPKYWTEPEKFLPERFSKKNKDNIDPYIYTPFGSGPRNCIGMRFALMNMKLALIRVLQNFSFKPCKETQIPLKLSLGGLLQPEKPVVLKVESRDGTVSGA

CYP2C19 = CYP2C19 (Homo sapiens, UniProt P33261); test: Inhibition of CYP2C19 (unknown origin) at 1 uM; assay type: ADME
Sequence of CYP2C19 (P33261 whole entry): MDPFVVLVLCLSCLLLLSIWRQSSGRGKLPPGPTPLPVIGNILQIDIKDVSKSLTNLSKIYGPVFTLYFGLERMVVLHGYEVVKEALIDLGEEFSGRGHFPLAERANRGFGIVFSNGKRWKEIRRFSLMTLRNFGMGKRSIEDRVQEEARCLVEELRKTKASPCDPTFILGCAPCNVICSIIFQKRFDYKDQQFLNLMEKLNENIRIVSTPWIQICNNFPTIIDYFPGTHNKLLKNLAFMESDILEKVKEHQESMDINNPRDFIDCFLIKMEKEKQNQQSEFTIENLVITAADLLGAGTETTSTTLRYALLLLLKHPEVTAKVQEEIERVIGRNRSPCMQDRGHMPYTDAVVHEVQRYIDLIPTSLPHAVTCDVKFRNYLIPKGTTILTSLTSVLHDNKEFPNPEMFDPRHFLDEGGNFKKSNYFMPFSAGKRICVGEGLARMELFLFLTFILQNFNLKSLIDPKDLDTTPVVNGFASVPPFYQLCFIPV

[10] = target: T1, Receptor-type tyrosine-protein kinase FLT3 (Homo sapiens, UniProt P36888); test: Inhibition of FLT3 (unknown origin)
T1 sequence (P36888 whole entry): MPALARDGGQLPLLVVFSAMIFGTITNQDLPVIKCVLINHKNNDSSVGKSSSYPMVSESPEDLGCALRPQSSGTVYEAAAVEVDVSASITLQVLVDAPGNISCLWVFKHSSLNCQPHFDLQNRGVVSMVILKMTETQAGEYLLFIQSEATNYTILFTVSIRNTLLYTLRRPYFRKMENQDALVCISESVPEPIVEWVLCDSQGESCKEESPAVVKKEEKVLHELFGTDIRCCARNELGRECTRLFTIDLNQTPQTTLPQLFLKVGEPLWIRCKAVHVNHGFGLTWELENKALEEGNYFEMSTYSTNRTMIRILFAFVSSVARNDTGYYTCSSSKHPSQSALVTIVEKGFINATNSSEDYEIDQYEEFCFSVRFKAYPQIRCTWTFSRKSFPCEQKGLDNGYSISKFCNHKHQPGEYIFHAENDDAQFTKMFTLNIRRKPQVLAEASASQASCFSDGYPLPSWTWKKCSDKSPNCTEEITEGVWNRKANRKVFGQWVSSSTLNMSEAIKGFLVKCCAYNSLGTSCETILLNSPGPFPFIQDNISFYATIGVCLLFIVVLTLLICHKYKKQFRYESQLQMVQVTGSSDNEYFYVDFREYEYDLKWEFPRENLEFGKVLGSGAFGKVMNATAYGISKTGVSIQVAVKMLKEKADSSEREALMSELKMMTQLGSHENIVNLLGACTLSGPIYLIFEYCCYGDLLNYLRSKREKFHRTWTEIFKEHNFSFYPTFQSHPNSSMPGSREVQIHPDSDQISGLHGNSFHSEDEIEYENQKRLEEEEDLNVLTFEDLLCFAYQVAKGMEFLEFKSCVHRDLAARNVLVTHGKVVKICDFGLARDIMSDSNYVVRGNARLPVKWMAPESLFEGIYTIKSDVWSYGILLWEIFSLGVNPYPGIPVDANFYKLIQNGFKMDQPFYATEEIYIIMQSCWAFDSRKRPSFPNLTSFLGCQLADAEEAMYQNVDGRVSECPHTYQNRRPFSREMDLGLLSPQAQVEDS

MDA-MB-468 = test: Growth inhibition of human MDA-MB-468 cells; assay type: functional
[11] = target: T2, Serine/threonine-protein kinase PLK4 (Homo sapiens, UniProt O00444); test: Inhibition of PLK4 (unknown origin)
T2 sequence (O00444 whole entry): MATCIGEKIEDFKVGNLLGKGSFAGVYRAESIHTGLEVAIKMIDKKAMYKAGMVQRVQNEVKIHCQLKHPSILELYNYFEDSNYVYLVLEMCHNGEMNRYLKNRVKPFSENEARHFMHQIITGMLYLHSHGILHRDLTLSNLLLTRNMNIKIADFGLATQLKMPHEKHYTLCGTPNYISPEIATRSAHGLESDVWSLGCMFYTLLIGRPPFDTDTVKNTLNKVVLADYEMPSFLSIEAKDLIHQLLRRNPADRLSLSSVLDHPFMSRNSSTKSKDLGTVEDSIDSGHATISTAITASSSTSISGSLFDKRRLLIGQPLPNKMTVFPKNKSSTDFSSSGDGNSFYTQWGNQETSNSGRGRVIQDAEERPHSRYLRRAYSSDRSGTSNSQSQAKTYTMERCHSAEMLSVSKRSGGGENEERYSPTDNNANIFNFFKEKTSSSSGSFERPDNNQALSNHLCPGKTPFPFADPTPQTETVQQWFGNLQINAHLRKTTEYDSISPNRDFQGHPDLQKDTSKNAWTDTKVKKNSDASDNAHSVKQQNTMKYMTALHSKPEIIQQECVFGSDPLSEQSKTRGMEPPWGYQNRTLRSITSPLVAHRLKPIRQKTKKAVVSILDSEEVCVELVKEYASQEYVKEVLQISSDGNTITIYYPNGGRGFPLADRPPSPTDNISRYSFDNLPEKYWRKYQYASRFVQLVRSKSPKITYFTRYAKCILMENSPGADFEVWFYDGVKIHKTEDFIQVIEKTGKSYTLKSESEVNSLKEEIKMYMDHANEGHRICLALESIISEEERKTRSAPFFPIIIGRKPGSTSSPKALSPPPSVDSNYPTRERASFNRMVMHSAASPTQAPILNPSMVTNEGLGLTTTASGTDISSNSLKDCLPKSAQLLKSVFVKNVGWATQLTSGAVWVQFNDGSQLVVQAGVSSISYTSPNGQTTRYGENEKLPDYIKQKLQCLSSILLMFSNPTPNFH

Aurora kinase B = Aurora kinase B (Homo sapiens, UniProt Q96GD4); test: Inhibition of AURKB (unknown origin)
Sequence of Aurora kinase B (Q96GD4 whole entry): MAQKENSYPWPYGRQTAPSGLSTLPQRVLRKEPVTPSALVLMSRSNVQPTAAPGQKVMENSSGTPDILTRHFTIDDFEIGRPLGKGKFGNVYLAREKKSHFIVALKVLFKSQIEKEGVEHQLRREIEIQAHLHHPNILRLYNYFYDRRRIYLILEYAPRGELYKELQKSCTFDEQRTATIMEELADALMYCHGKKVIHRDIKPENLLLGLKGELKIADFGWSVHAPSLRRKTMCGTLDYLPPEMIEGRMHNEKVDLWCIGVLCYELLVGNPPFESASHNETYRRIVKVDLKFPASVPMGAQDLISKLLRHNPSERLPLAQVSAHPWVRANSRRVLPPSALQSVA

[12] = target: Vascular endothelial growth factor receptor 2 (Homo sapiens, UniProt P35968); test: Inhibition of KDR (unknown origin)
Sequence of Vascular endothelial growth factor receptor 2 (P35968 whole entry): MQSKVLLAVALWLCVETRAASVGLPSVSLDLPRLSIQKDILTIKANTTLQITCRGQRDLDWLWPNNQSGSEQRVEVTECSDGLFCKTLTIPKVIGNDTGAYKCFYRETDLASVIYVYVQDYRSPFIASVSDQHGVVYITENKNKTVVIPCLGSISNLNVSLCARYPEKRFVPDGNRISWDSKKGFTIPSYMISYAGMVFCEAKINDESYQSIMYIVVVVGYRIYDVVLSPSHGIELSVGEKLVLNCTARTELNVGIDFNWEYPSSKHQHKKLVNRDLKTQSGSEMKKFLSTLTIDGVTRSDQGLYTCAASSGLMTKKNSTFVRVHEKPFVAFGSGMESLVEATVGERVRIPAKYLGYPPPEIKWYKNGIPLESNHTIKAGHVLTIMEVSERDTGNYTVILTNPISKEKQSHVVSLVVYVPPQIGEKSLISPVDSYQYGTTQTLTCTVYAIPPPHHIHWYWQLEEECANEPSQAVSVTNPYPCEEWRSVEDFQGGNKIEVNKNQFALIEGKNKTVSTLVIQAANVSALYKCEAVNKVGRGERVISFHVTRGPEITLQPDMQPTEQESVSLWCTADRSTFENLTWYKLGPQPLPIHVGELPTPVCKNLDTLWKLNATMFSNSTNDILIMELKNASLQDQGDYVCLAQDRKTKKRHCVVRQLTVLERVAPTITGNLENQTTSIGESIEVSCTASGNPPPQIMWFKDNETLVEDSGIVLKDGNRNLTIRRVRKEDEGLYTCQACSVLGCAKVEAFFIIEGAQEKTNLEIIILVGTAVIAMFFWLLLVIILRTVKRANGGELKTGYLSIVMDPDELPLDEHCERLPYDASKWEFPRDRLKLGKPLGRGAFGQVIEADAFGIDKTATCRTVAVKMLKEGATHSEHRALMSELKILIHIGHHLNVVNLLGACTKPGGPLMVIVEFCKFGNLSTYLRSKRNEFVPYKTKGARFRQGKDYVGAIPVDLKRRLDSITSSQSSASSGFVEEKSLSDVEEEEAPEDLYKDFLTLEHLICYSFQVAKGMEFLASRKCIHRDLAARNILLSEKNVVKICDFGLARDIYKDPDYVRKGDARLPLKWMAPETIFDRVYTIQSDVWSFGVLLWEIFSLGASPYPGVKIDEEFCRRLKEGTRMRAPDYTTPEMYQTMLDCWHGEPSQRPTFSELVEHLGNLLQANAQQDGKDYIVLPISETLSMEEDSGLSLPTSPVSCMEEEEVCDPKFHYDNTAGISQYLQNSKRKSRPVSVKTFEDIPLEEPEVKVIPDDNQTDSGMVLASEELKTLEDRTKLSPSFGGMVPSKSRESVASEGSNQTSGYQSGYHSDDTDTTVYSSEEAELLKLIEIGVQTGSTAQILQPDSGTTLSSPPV

HCC1954 = test: Growth inhibition of human HCC1954; assay type: functional
Aurora kinase A = target: T3, Aurora kinase A (Homo sapiens, UniProt O14965); test: Inhibition of AURKA (unknown origin)
T3 sequence (O14965 whole entry): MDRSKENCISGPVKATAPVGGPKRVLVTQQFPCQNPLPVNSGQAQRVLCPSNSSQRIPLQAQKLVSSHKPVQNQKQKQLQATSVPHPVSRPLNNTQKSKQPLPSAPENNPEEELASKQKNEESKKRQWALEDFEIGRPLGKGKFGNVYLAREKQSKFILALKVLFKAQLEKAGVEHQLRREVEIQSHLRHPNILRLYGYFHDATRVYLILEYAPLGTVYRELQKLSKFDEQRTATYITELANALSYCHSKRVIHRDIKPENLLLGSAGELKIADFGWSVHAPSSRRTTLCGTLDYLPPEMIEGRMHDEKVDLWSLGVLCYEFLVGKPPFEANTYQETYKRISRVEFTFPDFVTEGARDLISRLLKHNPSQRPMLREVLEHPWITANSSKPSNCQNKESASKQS

MCF7 = test: Growth inhibition of human MCF7; assay type: functional
[13] = AUC in mouse at 25 mg/kg, po; assay type: ADME, organism-based; details: in vivo

Sequence of CYP2C9 (P11712 whole entry): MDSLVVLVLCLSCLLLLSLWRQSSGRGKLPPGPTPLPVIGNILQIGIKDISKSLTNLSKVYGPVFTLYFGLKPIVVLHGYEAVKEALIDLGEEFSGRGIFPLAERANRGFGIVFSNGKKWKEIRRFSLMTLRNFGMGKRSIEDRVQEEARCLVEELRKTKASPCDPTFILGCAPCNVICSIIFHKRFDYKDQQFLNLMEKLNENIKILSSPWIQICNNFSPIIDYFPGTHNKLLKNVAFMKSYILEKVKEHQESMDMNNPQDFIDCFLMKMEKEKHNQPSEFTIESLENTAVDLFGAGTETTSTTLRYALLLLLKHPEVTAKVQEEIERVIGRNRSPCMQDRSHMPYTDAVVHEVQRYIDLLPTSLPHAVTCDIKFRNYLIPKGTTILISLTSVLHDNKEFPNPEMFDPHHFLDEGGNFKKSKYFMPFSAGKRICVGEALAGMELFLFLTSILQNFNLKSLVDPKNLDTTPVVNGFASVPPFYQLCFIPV

half-life [1] [min] | logD [3] | half-life [7] [min] | pIC50 [10] | GI50 (MDA-MB-468) [nM] | pIC50 [11] | SMILES | other results
4 | 4.5 | 24 |  |  |  | CN1CCN(c2ccc(/C=C/c3n[nH]c4cc(/C=C5/C(=O)Nc6ccccc65)ccc34)cn2)CC1 | inhibition at 1 µM (CYP2C9): 67%; AUC [2]: 170 ng·h/mL; half-life [4]: 306 min; bioavailability [5]: < 1%; clearance [6]: 107 mL/min/kg; Cmax ([8]; BLD = below limit of detection): Bld; AUC ([9]; BLD = below limit of detection): Bld; inhibition at 1 µM (CYP3A4): 55%; inhibition at 1 µM (CYP2C19): 83%
 |  |  | 7.31 | 4600 |  | O=C1Nc2ccccc2/C1=C\c1ccc2cn[nH]c2c1 | 
9 | 4.2 | 16 |  |  |  | COc1ccc2c(c1)[C@]1(C[C@H]1c1ccc3c(/C=C/c4ccc(N5CCN(C)CC5)nc4)n[nH]c3c1)C(=O)N2 | inhibition at 1 µM (CYP2C9): 73%; AUC [2]: 330 ng·h/mL; half-life [4]: 144 min; bioavailability [5]: 15%; clearance [6]: 51.7 mL/min/kg; AUC ([9]; read-out: AUC): 250 ng·h/mL; inhibition at 1 µM (CYP3A4): 76%; inhibition at 1 µM (CYP2C19): 93%
4 | 3.5 | 13 | 7.55 | 1300 to 3700 | 8.62 | COc1ccc2c(c1)C(=Cc1ccc3c(-c4ccc(N5CCN(C)CC5)nc4)n[nH]c3c1)C(=O)N2 | inhibition at 1 µM (CYP2C9): 60%; pIC50 (Aurora kinase B): 7.46; pIC50 [12]: 6.20; AUC [2]: 94 ng·h/mL; half-life [4]: 78 min; bioavailability [5]: 2%; clearance [6]: 178 mL/min/kg; GI50 (HCC1954): 5900 nM; pIC50 (Aurora kinase A): 6.15; AUC ([9]; read-out: AUC): 24 ng·h/mL; inhibition at 1 µM (CYP3A4): 19%; inhibition at 1 µM (CYP2C19): 64%; GI50 (MCF7): 5400 nM
 |  |  | 7.77 | 1300 | 7.89 | CN1CCN(c2ccc(-c3n[nH]c4cc(C=C5C(=O)Nc6ccccc65)ccc34)cn2)CC1 | 
43 | 3.4 | > 60 | 6.64 | 5.8 | 8.92 | COc1ccc2c(c1)[C@]1(C[C@H]1c1ccc3c(-c4ccc(N5C[C@@H](C)N[C@@H](C)C5)cc4)n[nH]c3c1)C(=O)N2 | inhibition at 1 µM (CYP2C9): 44%; pIC50 (Aurora kinase B): 7.89; pIC50 [12]: < 5.30; Cmax ([8]; read-out: Cmax): 110 ng/mL; GI50 (HCC1954): 8800 nM; pIC50 (Aurora kinase A): < 6.00; inhibition at 1 µM (CYP3A4): -3%; inhibition at 1 µM (CYP2C19): 54%; GI50 (MCF7): 30 nM; AUC [13]: 170 ng·h/mL
 |  |  | 7.30 | 7700 | 7.19 | O=C1Nc2ccccc2C1=Cc1ccc2c(-c3ccc[nH]3)n[nH]c2c1 | 
 |  |  |  |  | 6.27 | O=C1Nc2ccccc2C1=Cc1ccc2c(-c3cc4ccccc4[nH]3)n[nH]c2c1 | 
 |  |  | 7.14 |  | 6.31 | O=C1Nc2ccccc2/C1=C\c1ccc2c(-c3nccs3)n[nH]c2c1 | 
 |  |  | 5.19 | 3700 | 7.52 | COc1ccc2c(c1)[C@@]1(C[C@@H]1c1ccc3c(-c4ccc(N5CCN(C)CC5)nc4)n[nH]c3c1)C(=O)N2 | pIC50 (Aurora kinase B): 5.68; pIC50 [12]: < 4.30; GI50 (HCC1954): 5900 nM; pIC50 (Aurora kinase A): < 6.00; GI50 (MCF7): 5400 nM
28 | 4 | > 60 | 7.11 | 68 | 8.92 | COc1ccc2c(c1)[C@]1(C[C@H]1c1ccc3c(-c4ccc(N5CCN(CCO)CC5)cc4)n[nH]c3c1)C(=O)N2 | inhibition at 1 µM (CYP2C9): 41%; pIC50 (Aurora kinase B): 8.15; AUC [2]: 220 ng·h/mL; half-life [4]: 84 min; bioavailability [5]: 11%; clearance [6]: 76.7 mL/min/kg; Cmax ([8]; read-out: Cmax): 250 ng/mL; GI50 (HCC1954): 3000 nM; pIC50 (Aurora kinase A): < 6.00; AUC ([9]; read-out: AUC): 130 ng·h/mL; inhibition at 1 µM (CYP3A4): 11%; inhibition at 1 µM (CYP2C19): 28%; GI50 (MCF7): 1700 nM; AUC [13]: 270 ng·h/mL
 |  |  | 7.01 | 600 |  | CN1CCN(c2ccc(-c3n[nH]c4cc([C@@H]5C[C@@]56C(=O)Nc5ccc(F)cc56)ccc34)cn2)CC1 | 
> 60 | 2.6 | 59 | 7.36 | < 10 | 9.35 | COc1ccc2c(c1)[C@]1(C[C@H]1c1ccc3c(-c4ccc(N5CCNCC5)cc4)n[nH]c3c1)C(=O)N2 | pIC50 (Aurora kinase B): 8.16; pIC50 [12]: 5.25; Cmax ([8]; BLD = below limit of detection): Bld; GI50 (HCC1954): 3600 nM; pIC50 (Aurora kinase A): < 6.00; GI50 (MCF7): < 10 nM
 |  |  | 6.92 | 9900 | 6.66 | O=C1Nc2ccccc2C1=Cc1ccc2c(-c3ccncc3)n[nH]c2c1 | 
 |  |  | 7.57 | 5000 | 7.54 | O=C1Nc2ccccc2C1=Cc1ccc2c(-c3cccnc3)n[nH]c2c1 | 
 |  |  | 6.49 | 380 | 8.68 | COc1ccc2c(c1)[C@]1(C[C@H]1c1ccc3c(-c4ccnc(N5CCN(C)CC5)c4)n[nH]c3c1)C(=O)N2 (racemic) | 
 |  |  | 6.62 | 890 |  | COc1ccc2c(c1)[C@]1(C[C@H]1c1ccc3c(-c4ccc(N5CCC(O)CC5)nc4)n[nH]c3c1)C(=O)N2 (racemic) | 
 |  |  | 6.59 | 120 | 9.00 | COc1ccc2c(c1)[C@]1(C[C@H]1c1ccc3c(-c4ccc(N5CCN(C)CC5)nc4)n[nH]c3c1)C(=O)N2 (racemic) | 
 |  |  | 6.70 | 770 | 7.27 | CN1CCN(c2ccc(-c3n[nH]c4cc([C@@H]5C[C@@]56C(=O)Nc5ccccc56)ccc34)cn2)CC1 (racemic) | 
 |  |  | 5.92 | 670 |  | COc1ccc2c(c1)[C@]1(C[C@H]1c1ccc3c(-c4ccc(N5CCOCC5)nc4)n[nH]c3c1)C(=O)N2 (racemic) | 
